Results taken from patent publication US5126057A, “Disinfecting with N,N'-dihaloimidazolidin-4-ones” (Auburn Research Foundation, priority 1991, dated 1992).
≈ marks a conversion by molar mass, not a printed value.

Assays:
Format in all cases: physicochemical
[1] = physchem; details: for solubility: water, solubility in water
Description: In method (a) 47.4 grams (0.3 mole) of 2,2,5,5-tetramethylimidazolidine-4-thione was dissolved in 1.2 liters of 3 Normal sodium hydroxide solution (3.6 moles) in a 2 liter flask. The flask and its contents were cooled to 5° C. using an ice bath, and chlorine gas was bubbled into the mixture while stirring until the pH of the solution reached 7.0. The temperature of the mixture was not allowed to rise above 10° C. during this process. The N,N'-dichloroimidazolidin-4-one product precipitated as a white solid. Following addition of 800 milliliters of water to the flask, the solid product was recovered by suction filtration. The product was then purified by dissolving it in hexane, allowing the impurities and remaining water to settle, and recovery by evaporation of the volatile hexane layer which was separated from the impurity/water layer. The product yield was 53.9 grams or 85% of that theoretically expected. Elemental analysis of the product (1,3-dichloro-2,2,5,5-tetramethylimidazolidin-4-one) gave the following results: (calculated/found) % carbon 39.82/39.86, % hydrogen 5.73/5.50, % nitrogen 13.27/13.24, and % chlorine 33.59/32.88. […] Analysis of the product by proton NMR and infrared spectroscopy yielded the following results:
5.1 Grams (0.036 mole) of 2,2,5,5-tetramethylimidazolidin-4-one prepared as in example 2 was dissolved in 88 milliliters of 1 Normal sodium hydroxide solution (0.088 mole) in a 250 milliliter flask. While maintaining this mixture at 10° C. or below using an ice bath and stirring, 12.8 grams (0.08 mole) of liquid bromine was added dropwise. The product 1,3-dibromo-2,2,5,5-tetramethylimidazolidin-4-one precipitated from the mixture as a pale yellow solid. The product was recovered by suction filtration and purified by recrystallization from hexane. The product yield was 9.2 grams or 85% of that theoretically expected. Elemental analysis of the product (1,3-dibromo-2,2,5,5-tetramethylimidazolidin-4-one) gave the following results: (calculated/found) % carbon 28.00/27.80, % hydrogen 4.00/4.07, % nitrogen 9.33/9.39, and % bromine 53.33/52.09. […] Analysis of the product by proton NMR and infrared spectroscopy yielded the following results:
6.4 Grams (0.045 mole) of 2,2,5,5-tetramethylimidazolidin-4-one prepared as in example 2 was dissolved in 55 milliliters of 1 Normal sodium hydroxide solution (0.055 mole) in a 250 milliliter flask. While maintaining the reaction mixture at a temperature of 5°-10° C. by use of an ice bath and stirring, 4.0 grams (0.025 mole) of liquid bromine was added dropwise. The reaction mixture was stirred at ice bath temperature for an additional 1 hour and then for 1-2 hours at cold water bath conditions (10°-20° C.). Following cooling the mixture below 10° C. again, 50 milliliters of 1 Normal sodium hydroxide solution (0.05 mole) was added, and chlorine gas was bubbled in while stirring at 5°-10° C. until the pH reached 6-7. The 1-bromo-3-chloro-2,2,5,5-tetramethylimidazolidin-4-one product precipitated as a white solid. The product was recovered by suction filtration and purified by recrystallization from hexane. The product yield was 11.2 grams or 97% of that theoretically expected. Elemental analysis of the product gave the following results: (calculated/found) % carbon 32.88/32.68, % hydrogen 4.70/4.74, % nitrogen 10.96/10.83, % bromine 31.31/33.37, % chlorine 13.89/12.67. The rather high and low found values as compared to the theoretical values for bromine and chlorine, respectively, indicate that the product was contaminated with a small amount of 1,3-dibromo-2,2,5,5-tetramethylimidazolidin-4-one. […] Analysis of the product by proton NMR and infrared spectroscopy yielded the following results: […]

[2] = Laboratory stability in halogen demand-free water (DFW), iodometric titration; details: for Percent Chlorine Remaining: DFW, 22° C.
Description: The stability of 1,3-dichloro-2,2,5,5-tetramethylimidazolidin-4-one (Compound 1) in halogen demand-free water was determined at 22° C. and pH values of 4.5, 7.0, and 9.5, and the results were compared to those for free chlorine as supplied by calcium hypochlorite. The demand-free water (DFW) was prepared by chlorination of distilled, deionized water buffered to the appropriate pH followed by dechlorination (of the excess free chlorine) by exposure to direct sunlight until no free chlorine remained. This treatment insured that all halogen demand in the water was neutralized. Then Compound 1 and calcium hypochlorite were separately dissolved in identical DFW (buffered to an appropriate pH) solutions to the same final total chlorine concentrations (10 milligrams per liter potential positive chlorine). The solutions in separate flasks, which were stoppered with porous, sterile cotton plugs to allow free exchange with laboratory air, were then held at a constant temperature of 22° C. by means of a controlled water bath for a period of several weeks. Aliquots were withdrawn periodically (at least weekly), and the total positive chlorine remaining was determined in triplicate by standard iodometric titration. […]
The stabilities of 1,3-dibromo-2,2,5,5-tetramethylimidazolidin-4-one (Compound 4) and 1-bromo-3-chloro-2,2,5,5-tetramethylimidazolidin-4-one (Compound 5) in halogen demand-free water (DFW) were determined at 22° C. and pH values of 7.0 and 9.5 using the same procedures as discussed under example 9. Given the instability of Compound 1 at pH 4.5 (example 9), it was deemed unnecessary to test compounds 4 and 5 at that pH. The two compounds were dissolved in DFW buffered to the appropriate pH in separate flasks and held at a temperature of 22° C. by means of a constant temperature bath. The starting concentrations of total potential positive halogen in the two solutions were 22.6 milligrams per liter for Compound 4 and 16.25 milligrams per liter for Compound 5; these concentrations represent the molar equivalents in total potential positive halogen to that used for Compound 1 in example 9. The solutions were analyzed in the manner described in example 9.

[3] = Stability in demand-free water exposed to direct sunlight; details: DFW, direct sunlight, 22-24° C.
Description: The stabilities of compounds 1,5, and free chlorine from calcium hypochlorite (Compound 2) in water exposed to direct sunlight were determined. Each compound at the 10 milligrams per liter total chlorine concentration level (or at the molar equivalent for total halogen for Compound 5) was dissolved in 85 milliliters of demand-free water buffered at pH 7.0 in separate 100 milliliter beakers which were placed in a temperature-controlled water bath (22°-24° C.), and the bath containing the solutions was placed on the roof of the chemistry building at Auburn University exposed to direct sunlight during August 1988. Total potential positive halogen assays were made periodically on aliquots withdrawn over a 10 hour period using the standard iodometric titration technique.

[4] = Stability in synthetic halogen demand water (SDW); details: SDW, 4° C.
Description: A synthetic halogen demand water (SDW) was prepared by mixing the following substances with demand-free water (DFW): 375 milligrams per liter of each of the inorganic salts sodium chloride, potassium chloride, calcium chloride, and magnesium chloride; 50 milligrams per liter of Bentonite clay; 30 milligrams per liter of humic acid; 0.01 percent final concentration of heat-treated horse serum; and 5×10^5 cells per milliliter of heat-killed Saccharomyces cerevisiae yeast cells. The SDW solution was buffered with 0.01 Molar borate/sodium hydroxide to a pH of 9.5 and held at 4° C. during the experiments. The conditions of high ionic strength, turbidity, and organic material, and alkaline pH at low temperature, are viewed as a worst-case scenario for disinfection applications and thus should provide the optimum test of stability for the new compounds.
In separate flasks were dissolved compounds 1, 2, 3, and 5 to a starting concentration of 10 milligrams per liter total potential positive chlorine or its molar equivalent (16.25 milligrams per liter) in total potential positive halogen for Compound 5. Aliquots were withdrawn frequently over a period of more than 90 hours, and the percent positive halogen remaining was determined by standard iodometric titration.

For CC1(C)C(=O)N(Cl)C(C)(C)N1Br [1-bromo-3-chloro-2,2,5,5-tetramethylimidazolidin-4-one], the solubility in water [1] was 0.193 grams in 100 milliliters of water and the solubility [1] was 1020 µg/mL (≈ 3.99 mM).

In the case of CC1(C)C(=O)N(Br)C(C)(C)N1Br [1,3-dibromo-2,2,5,5-tetramethylimidazolidin-4-one], the solubility in water [1] is reported as 0.120 grams in 100 milliliters of water and the solubility [1] is reported as 720 µg/mL (≈ 2.4 mM).

CC1(C)C(=O)N(Br)C(C)(C)N1Br [Compound 4, 1,3-dibromo-2,2,5,5-tetramethylimidazolidin-4-one] showed a remaining at 23.52 h ([2]; demand-free water, pH 9.5) of 91.4%, a remaining at 72.24 h ([2]; demand-free water, pH 9.5) of 71% and a remaining at 168 h ([2]; demand-free water, pH 9.5) of 36%. The remaining at 336 h ([2]; demand-free water, pH 9.5) was 4.8%.

With [Ca+2].[O-]Cl.[O-]Cl [Compound 2, calcium hypochlorite, reference compound] the “Percent Halogen Remaining” value ([3]; pH 7.0, 3.0 hrs) was 26.0%, the “Percent Halogen Remaining” value ([3]; pH 7.0, 5.0 hrs) was 6.9% and the “Percent Halogen Remaining” value ([3]; pH 7.0, 10.0 hrs) was 0.0%. For the same compound, the “Percent Chlorine Remaining” value ([2]; pH 4.5 (acetate), 1 week, 10080 min) was 91.8%, the “Percent Chlorine Remaining” value ([2]; pH 4.5 (acetate), 2 weeks, 20160 min) was 86.2% and the “Percent Chlorine Remaining” value ([2]; pH 4.5 (acetate), 3 weeks, 30240 min) was 80.8%. The “Percent Chlorine Remaining” value ([2]; pH 4.5 (acetate), 4 weeks, 40320 min) was 76.4%, the “Percent Chlorine Remaining” value ([2]; pH 4.5 (acetate), 5 weeks, 50400 min) was 71.5% and the “Percent Chlorine Remaining” value ([2]; pH 4.5 (acetate), 6.14 weeks, 61891.2 min) was 65.0%. The “Percent Chlorine Remaining” value ([2]; pH 7.0 (phosphate), 1 week, 10080 min) was 91.8%, the “Percent Chlorine Remaining” value ([2]; pH 7.0 (phosphate), 2 weeks, 20160 min) was 85.0% and the “Percent Chlorine Remaining” value ([2]; pH 7.0 (phosphate), 3 weeks, 30240 min) was 79.6%. The “Percent Chlorine Remaining” value ([2]; pH 7.0 (phosphate), 4 weeks, 40320 min) was 70.6%, the “Percent Chlorine Remaining” value ([2]; pH 7.0 (phosphate), 5 weeks, 50400 min) was 63.4% and the “Percent Chlorine Remaining” value ([2]; pH 7.0 (phosphate), 6.14 weeks, 61891.2 min) was 54.7%. The “Percent Chlorine Remaining” value ([2]; pH 9.5 (borate/NaOH), 1 week, 10080 min) was 88.9%, the “Percent Chlorine Remaining” value ([2]; pH 9.5 (borate/NaOH), 2 weeks, 20160 min) was 79.0% and the “Percent Chlorine Remaining” value ([2]; pH 9.5 (borate/NaOH), 3 weeks, 30240 min) was 71.2%. For the same compound, the “Percent Chlorine Remaining” value ([2]; pH 9.5 (borate/NaOH), 4 weeks, 40320 min) was 60.3%, the “Percent Chlorine Remaining” value ([2]; pH 9.5 (borate/NaOH), 5 weeks, 50400 min) was 50.1% and the “Percent Chlorine Remaining” value ([2]; pH 9.5 (borate/NaOH), 6.14 weeks, 61891.2 min) was 38.5%. For the same compound, the “Percent Halogen Remaining” value ([4]; pH 9.5, 0.5 hrs) was 51.5%, the “Percent Halogen Remaining” value ([4]; pH 9.5, 1.0 hrs) was 46.4% and the “Percent Halogen Remaining” value ([4]; pH 9.5, 2.5 hrs) was 39.6%. For the same compound, the “Percent Halogen Remaining” value ([4]; pH 9.5, 4.2 hrs) was 39.6%, the “Percent Halogen Remaining” value ([4]; pH 9.5, 7.5 hrs) was 36.2% and the “Percent Halogen Remaining” value ([4]; pH 9.5, 24.0 hrs) was 31.3%. The “Percent Halogen Remaining” value ([4]; pH 9.5, 76.5 hrs) was 21.5%.
